Results taken from PubChem BioAssay (NCI).
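Tested at 5 concentrations; 48 h exposure; 96-well plates; endpoints linearly interpolated, else capped at highest concentration. GI50 marks 50% less growth. The concentration for full growth arrest is given as TGI.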 Where a SMILES comes first, the peptide text is derived from it. [ ]: non-standard residue; d: D form. The star is where a group is joined. ξ: configuration not given here. dIva = CC[C@@](C)(N)C(=O)O; Aib = CC(C)(N)C(=O)O; ξP = O=C(O)C1CCCN1; βAla = NCCC(=O)O; X5 = OCN*

System: MDA-MB-468 breast
Test: inhibition of tumour cell growth, NCI panel, 48 h

Row | Structure (SMILES) | GI50 | TGI
1 | NS(=O)(=O)c1ccc(N=Nc2c(=O)[nH]c3ccc4[nH]cccc4c23)cc1 | 73.3 nM | 257 nM
2 | COc1ccc2c(c1)NC(=O)CN2c1nc(C)nc2ccccc12 | 0.415 nM | 
3 | COc1ccccc1/C=C/C=N/NC1=NC2C(S1)N(C)C(=O)N2c1ccccc1 (stereo not given) | 428 nM | 31000 nM
4 | COc1ccc(-c2cc3c(N)ncnc3o2)cc1 | > 25000 nM | > 25000 nM
5 | CN1CCN(Cc2ccc(NC(=O)c3cncc(C#Cc4ncc5ccccn45)c3)cc2C(F)(F)F)CC1 | 2780 nM | 7900 nM
6 | O=C1/C(=C/c2cccc(F)c2)CN(C(=O)C(Cl)Cl)C/C1=C\c1cccc(F)c1 | 207 nM | 529 nM
7 | CC(=O)N1c2ccc(-c3ccc(C(=O)O)cc3)cc2[C@H](Nc2ccc(Cl)cc2)C[C@@H]1C | 131 nM | 17300 nM
8 | CC(CNc1nc(Nc2ccc(Cl)c(Cl)c2)nc(C(Cl)(Cl)Cl)n1)N(C)C (stereo not given) | 1470 nM | 2850 nM
9 | CC(=O)Nc1nc(C)c(-c2cc3c(c(S(C)(=O)=O)c2)C(=O)N([C@@H](C)C2CC2)C3)s1 | 31600 nM | > 100000 nM
10 | NC(N)=N/N=C/c1ccc(Br)cc1 | 1500 nM | 4810 nM
11 | COC(=O)CCc1c(/C=C2\N=C(c3ccc[nH]3)C=C2OC)[nH]c(C)c1C(=O)OCc1ccccc1 | 842 nM | 4400 nM
12 | CN1CCN(Cc2ccc(NC(=O)c3[nH]ncc3Nc3cc(OC4CCCC4)ncn3)cc2)CC1 | 1980 nM | 4770 nM
13 | CCCCCCCCCCCCCCCC(N)c1ccccc1 (stereo not given) | 1580 nM | 3140 nM
14 | CNCC1CCn2c(c(C3=C(c4cn(C)c5ccccc45)C(=O)NC3=O)c3ccccc32)C1 (stereo not given) | 2620 nM | 6580 nM
15 | COc1ccc(-c2c(C#N)cnc(N)c2-c2nc3cc(C)c(C)cc3[nH]2)cc1 | 6220 nM | 23100 nM
16 | COc1ccc(/C=C/C(=O)/C=C(/C=C/c2ccc(OC)c(OC)c2OC)OB(F)F)c(OC)c1OC | 2570 nM | 9650 nM
17 | COc1cc[nH]c1/C=C1\C(=O)Nc2ccc([N+](=O)[O-])c(N3CC[C@@H](O)C3)c21 | 352 nM | 995 nM
18 | Nc1nc(N)c(-c2ccc(Cl)cc2)c(/C=C/c2ccc([N+](=O)[O-])cc2)n1 | 3020 nM | > 100000 nM
19 | O=C1C=C(OCC=C(Cl)Cl)C(=O)c2ccccc21 | 1050 nM | 3600 nM
20 | C[C@H](c1ccc(Cl)cc1[N+](=O)[O-])N1C(=O)c2cc(I)ccc2NC(=O)[C@H]1c1ccc(Cl)cc1 | 16600 nM | > 100000 nM
21 | CC1(C)N=C(N)N=C(N)N1c1ccc(CCC(=O)Nc2cccc(S(=O)(=O)F)c2)cc1 | 1310 nM | > 100000 nM
22 | CCC(=O)OCN1C(=O)C=CC1=O | 14100 nM | 32400 nM
23 | COc1cc(OC)c2c(c1Cl)O[C@]1(C2=O)C(OCc2ccccc2)=CC(=O)C[C@H]1C | 741 nM | 47500 nM
24 | CN(C)CCNC(=O)c1ccc(-c2nc3ccc4[nH]ncc4c3c3c2COCC3)cc1 | 169 nM | 360 nM
25 | CCC(=O)Oc1ccc(/C=N/NC(N)=S)nc1 | 1970 nM | 7220 nM
26 | CC[C@@](C)(NC(=O)[C@H](C)NC(=O)CCNC(=O)C(C)(C)NC(=O)[C@H](C)NC(=O)[C@@H]1CCCN1C(=O)[C@@](C)(CC)NC(=O)[C@H](Cc1ccccc1)NC(=O)C1CCCN1C(=O)C(C)(C)NC(=O)C1CCCN1C(=O)C(C)(C)NC(C)=O)C(=O)NCCC(=O)N[C@@H](CC(C)C)C(=O)NC(C)(C)C(=O)NCCC(=O)N[C@@H](CC(C)C)C(=O)NC(C)(C)C(=O)NC(C)(C)C(=O)N[C@@H](CC(C)C)C(=O)NCCC(=O)NCO (stereo not given in full) (Ac-[Aib][ξP][Aib][ξP]F[dIva]PA[Aib][βAla]A[dIva][βAla]L[Aib][βAla]L[Aib][Aib]L[βAla]-X5) | 52.8 nM | 163 nM
27 | COC(=O)[C@]1(C)CC[C@]2(C)CC[C@]3(C)C(=CC(=O)[C@@H]4[C@@]5(C)CCC(=O)NC(C)(C)[C@@H]5CC[C@]43C)[C@@H]2C1 | 18300 nM | 64200 nM
28 | CN1C(=O)C(C)(C)Oc2c(-c3cn(C)c(=O)c4[nH]ccc34)cc(S(C)(=O)=O)cc21 | 551 nM | 3700 nM
